Laboratory results published in patent US9828588B2, “Methods and compositions for producing active vitamin K-dependent proteins” (The University of North Carolina at Chapel Hill, priority 2005, dated 2017).

System: P450 2C9
Test: Average warfarin maintenance dose in patients by P450 2C9 genotype
Format: in vivo, human
Conditions: patients heterozygous for P450 2C9*3, n=8
Source text: Subjects were obtained from the UNC Coagulation Clinic in the Ambulatory Care Center. Informed consent was obtained by a trained genetic counselor. Subjects not fluent in English were excluded because of the lack of translators and the requirement for consent.
The difference of average dose between different genotypes was compared by analysis of variance (ANOVA) using SAS version 8.0 (SAS, Inc., Cary, N.C.). A two-sided p value less than 0.05 was considered significant.
Each marker was first analyzed independently.
SAS was used first to do a repeated procedure in which a series of factors (race, gender, smoking history, hepatic diseases, SNPs at cytochrome […] gene, etc.) were examined to identify factors, excluding VKOR SNPs, which might affect dosage.

## CC(=O)CC(c1ccccc1)c1c(O)c2ccccc2oc1=O (stereo not shown) [warfarin]
  average warfarin dose: 22.4±4.34 mg per week
